Where two headings read alike, the source gives them in different places.
Assays:
[1] = tested on: PD1-ss+10aa/Gaussia Luciferase; assay: Dox-Induced PD1-ss-Gluc Assay; type: cell-based
In short: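 Flp-In 293 T-REx cells stably carrying a doxycycline-inducible Gaussia luciferase fused to the PD1 signal sequence plus 10 aa were plated the day before. Compound dilutions in DMSO/media containing doxycycline were then added and incubated at 37 °C, 5% CO2. Data for undefined stereochemistry refer to stereoisomer mixtures.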

[2] = tested on: IL-2-FL/Gaussia Luciferase; assay: Dox Inducible IL2-FL-Gluc Assay; type: cell-based
In short: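 Flp-In 293 T-REx cells stably carrying doxycycline-inducible full-length IL-2 (aa 1-153) fused at its C-terminus to Gaussia luciferase, selected with hygromycin and blasticidin. Cells were plated the day before, then treated with compounds in DMSO/media containing doxycycline at 37° C, 5% CO2.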

[3] = tested on: HER3-ss+4aa/Gaussia Luciferase; assay: Dox-Inducible Her3-ss-Gluc Assay; type: cell-based
Description: Flp-In 293 T-REx™ cells were transfected with pcDNA™5/FRT/TO plasmid inserted with cDNA encoding Gaussia Luciferase fused to the 3′ end of cDNA encoding HER3 signal sequence plus 4 amino acids (N-[…]-C) (SEQ ID NO: 2). Transfected cells were selected for resistance to the selectable markers Hygromycin and Blasticidin to create a stable cell line that contained the HER3-ss+4aa/Gaussia Luciferase cDNA insert whose expression was regulated under the T-REx™ system. The day before assay, cells were trypsinized and plated in 384-well tissue culture plates. The next day, compound dilutions in DMSO/media containing doxycycline were added to the wells and incubated at 37° C., 5% CO2.
(§1) For chemical structures that include one or more stereoisomers, but are illustrated without indicating stereochemistry, the assay data refers to a mixture of stereoisomers.

[4] = tested on: TNFα-FL/Gaussia Luciferase; assay: Dox Induced TNFα-FL-Gluc Assay; type: cell-based
Description: Flp-In 293 T-REx™ cells were transfected with pcDNA™5/FRT/TO plasmid inserted with cDNA encoding Gaussia Luciferase fused to the 3′ end of cDNA encoding full length TNFα (amino acids 1-233). Transfected cells were selected for resistance to the selectable markers Hygromycin and Blasticidin to create a stable cell line that contained the TNFα-FL/Gaussia Luciferase cDNA insert whose expression was regulated under the T-REx™ system. The day before assay, cells were trypsinized and plated in 384-well tissue culture plates. The next day, compound dilutions in DMSO/media containing doxycycline were added to the wells and incubated at 37° C., 5% CO2.
as §1

[5] = tested on: multiple myeloma cell line NCI-H929; assay: H929 Cell Viability Assay; type: cell-based, human; conditions: Homo sapiens
In short: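 NCI-H929 cells, resuspended in RPMI 1640 with 10% FBS and 2 mM glutamine, were treated with compound dilutions in DMSO/media and incubated 48 hours at 37° C, 5% CO2. Viability was read by CellTiter-Glo luminescence. Compounds drawn without stereochemistry were tested as stereoisomer mixtures.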

[6] = tested on: multiple myeloma cell line U266B1; assay: U266 Cell Viability Assay; type: cell-based; conditions: Homo sapiens
In short: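 Cells grown in RPMI 1640 with 10% FBS, 2 mM glutamine and penicillin/streptomycin were exposed to compound dilutions in DMSO/media for 48 hours at 37° C., 5% CO2. Viability was read by CellTiter-Glo luminescence. Undefined stereocentres mean data for stereoisomer mixtures.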

[7] = Liver Microsome Stability Assay, mouse; type: in vitro ADME; conditions: mouse liver microsomes 1.0 mg/mL, 1.0 uM compound, 37° C., 1 mM NADPH
In short: (§2)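 Incubations at 37° C contain 1.0 mg/mL liver microsomes and 1.0 uM compound, with 1 mM NADPH present or absent. Time points are 0 and 30 minutes.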

[8] = Liver Microsome Stability Assay, rat; type: in vitro ADME; conditions: rat liver microsomes 1.0 mg/mL, 1.0 uM compound, 37° C., 1 mM NADPH
In short: as §2

[9] = Liver Microsome Stability Assay, monkey; type: in vitro ADME; conditions: monkey liver microsomes 1.0 mg/mL, 1.0 uM compound, 37° C., 1 mM NADPH
In short: as §2

[10] = Liver Microsome Stability Assay, human; type: in vitro ADME; conditions: human liver microsomes 1.0 mg/mL, 1.0 uM compound, 37° C., 1 mM NADPH
In short: as §2

[11] = Flp-In 293 T-REx cells, 24 hours with doxycycline; Table 3; read-out: 24 hr Dox Inducible PD1ssGluc 293FRT/TO: Mean IC50
[12] = Flp-In 293 T-REx cells, 24 hours with doxycycline; Table 3; read-out: 24 hr Dox Inducible IL2FLGluc 293FRT/TO: Mean IC50
[13] = ratio of IC50s IL2/PD1; Table 3
[14] = Flp-In 293 T-REx cells, 24 hours with doxycycline; Table 3; read-out: 24 hr Dox Inducible Her3(ss + 4)Gluc 293FRT/TO: Mean IC50
[15] = Flp-In 293 T-REx cells, 24 hours with doxycycline; Table 3; read-out: 24 hr Dox Inducible TNFaFLGluc 293FRT/TO: Mean IC50
[16] = ratio of IC50s TNF/PD1; Table 3
[17] = NCI-H929 cells, 48 hours, Celltiter-Glo, read-out: 48 hr H929 Viability Celltiter-Glo: Mean EC50
[18] = U-266, U266B1 cells, 48 hours, Celltiter-Glo, read-out: 48 hr U266 Viability Celltiter-Glo: Mean EC50

Structure (SMILES)	IC50 [1, 11] [nM]	IC50 [2, 12] [nM]	24 hr Dox Inducible IL2FLGluc 293FRT/TO: IL2/PD1 [2, 13]	IC50 [3, 14] [nM]	IC50 [4, 15] [nM]	24 hr Dox Inducible TNFaFLGluc 293FRT/TO: TNF/PD1 [4, 16]	EC50 [5, 17] [nM]	EC50 [6, 18] [nM]	Liver Microsome Stability (Multiple Species): Mouse - % Remaining after 30 min w/ NADPH (%) [7] [%]	Liver Microsome Stability (Multiple Species): Rat - % Remaining after 30 min w/ NADPH (%) [8] [%]	Liver Microsome Stability (Multiple Species): Monkey - % Remaining after 30 min w/ NADPH (%) [9] [%]	Liver Microsome Stability (Multiple Species): Human - % Remaining after 30 min w/ NADPH (%) [10] [%]	IC50 ([1]; read-out: 24 hr Dox Inducible PD1ssGluc 293FRT/TO: Mean IC50; Flp-In 293 T-REx cells, 24 hours with doxycycline; Table 3) [nM]	IC50 ([2]; read-out: 24 hr Dox Inducible IL2FLGluc 293FRT/TO: Mean IC50; Flp-In 293 T-REx cells, 24 hours with doxycycline; Table 3) [nM]	IC50 ([3]; read-out: 24 hr Dox Inducible Her3(ss + 4)Gluc 293FRT/TO: Mean IC50; Flp-In 293 T-REx cells, 24 hours with doxycycline; Table 3) [nM]	IC50 ([4]; read-out: 24 hr Dox Inducible TNFaFLGluc 293FRT/TO: Mean IC50; Flp-In 293 T-REx cells, 24 hours with doxycycline; Table 3) [nM]	EC50 ([5]; NCI-H929, 48 h, read-out: 48 hr H929 Viability Celltiter-Glo: Mean EC50 (nM)) [nM]	EC50 ([6]; U-266, 48 h, read-out: 48 hr U266 Viability Celltiter-Glo: Mean EC50 (nM)) [nM]
O=C(Nc1nc(/C=C/c2ccc(OC3CC3)cc2F)cs1)c1cccn1Cc1ccnc(F)c1 [Compound B6, (E)-N-(4-(4-cyclopropoxy-2-fluorostyryl)thiazol-2-yl)-1-((2-fluoropyridin-4-yl)methyl)-1H-pyrrole-2-carboxamide]	31	265	9	137	445	14	> 25000	> 25000	63	41	24	42						
C/C(=C\c1ccc(C)c(F)n1)c1csc(NC(=O)c2cccn2Cc2ccnc(F)c2)n1 [Compound B7, (E)-N-(4-(1-(6-fluoro-5-methylpyridin-2-yl)prop-1-en-2-yl)thiazol-2-yl)-1-((2-fluoropyridin-4-yl)methyl)-1H-pyrrole-2-carboxamide]	30	499	17	184	3980	134	8090	> 25000	23	13	6	4						
O=C(Nc1nc(/C=C/c2ccc(Cl)cn2)cs1)c1cccn1Cc1ccnc(F)c1 [Compound B8, (E)-N-(4-(2-(5-chloropyridin-2-yl)vinyl)thiazol-2-yl)-1-((2-fluoropyridin-4-yl)methyl)-1H-pyrrole-2-carboxamide]	24	1680	69	1180	11200	462	> 25000	> 25000	11	1	4	22						
O=C(Nc1nc(/C=C/[C@H]2CC[C@@H](C(F)(F)F)CC2)cs1)c1cccn1Cc1ccncc1 [Compound B9, 1-(pyridin-4-ylmethyl)-N-(4-((E)-2-((1s,4s)-4-(trifluoromethyl)cyclohexyl)vinyl)thiazol-2-yl)-1H-pyrrole-2-carboxamide]	161	748	5	298	3970	25	6260	20000	6	4	1	6						
O=C(Nc1nc(/C=C/[C@H]2CC[C@H](C(F)(F)F)CC2)cs1)c1cccn1Cc1ccncc1 [Compound B10, 1-(pyridin-4-ylmethyl)-N-(4-((E)-2-((1r,4r)-4-(trifluoromethyl)cyclohexyl)vinyl)thiazol-2-yl)-1H-pyrrole-2-carboxamide]	41	249	6	86	1010	25	5810	> 25000	49	5	11	38						
Cc1sc(NC(=O)c2cccn2Cc2ccnc(F)c2)nc1/C=C/c1cn(C(C)C)cn1 [Compound B23, (E)-1-((2-fluoropyridin-4-yl)methyl)-N-(4-(2-(1-isopropyl-1H-imidazol-4-yl)vinyl)-5-methylthiazol-2-yl)-1H-pyrrole-2-carboxamide]			>420			>422			16	19	1	<1	59	> 25000	3390	> 25000	> 25000	> 25000
C/C(=C\c1cn(C(C)C)cn1)c1csc(NC(=O)c2cccn2Cc2ccnc(F)c2)n1 [Compound B24, (E)-1-((2-fluoropyridin-4-yl)methyl)-N-(4-(1-(1-isopropyl-1H-imidazol-4-yl)prop-1-en-2-yl)thiazol-2-yl)-1H-pyrrole-2-carboxamide]	540	> 25000	>46	> 25000	> 25000	>46	13600	15300	3	1	<1	1						
